Experimental data published in US8198317B2, “Methylenedioxy phenolic compounds and their use to treat disease” (The Ohio State University Research Foundation, priority 2008, dated 2012).

Columns and labels:
ICAM-1 = experiment: ELISA of ICAM-1 release from TNF-α stimulated HUVEC; assay type: cell-based, human; settings: HUVEC pretreated 24 hours, then 2 ng/mL TNF-α for 6 hours
Protocol: (§1) Cell Culture: All experiments were performed with cultured Human Umbilical Vein Endothelial Cells (HUVECs—Gibco, Invitrogen) and grown to confluence at 37° C. in a 5% CO2 humidified incubator, on tissue culture flasks previously coated with 1% gelatin in supplemented culture medium (M199 with 10% heat inactivated fetal calf serum, 100 U/ml penicillin, 100 μg/ml streptomycin, 2 mM glutamine, 10 mM HEPES, pH 7.4, heparin 12 I.U./ml, 1% retinal derived growth factor, Sigma). Following trypsin treatment, the cells were detached from the flasks and final mono-layers were prepared by seeding HUVECs on gelatin-precoated culture plates and then incubated for 24-48 h to ensure confluence. Cells up to the fourth passage were used for all experiments. Recombinant human TNF-α was purchased from R&D Systems (Minneapolis, Minn.).
(§2) Enzyme-Linked Immunosorbent Assay (ELISA): To measure the expression of cell surface adhesion molecules, ELISA technique was utilized (R and D Systems, Minneapolis, Minn.). […]
(§3) Enzyme-Linked Immunosorbent Assay (ELISA) and results: To measure the expression of cell surface adhesion molecules, ELISA technique was utilized. […] The expression of VCAM-1 and ICAM-1 were evaluated after TNF-α stimulation for 6 hours.

VCAM-1 = experiment: ELISA of VCAM-1 release from TNF-α stimulated HUVEC; assay type: cell-based, human; settings: HUVEC pretreated 24 hours, then 2 ng/mL TNF-α for 6 hours
Protocol: as §1, §2, §3

Cardiovascular Patient = experiment: Treatment of a patient with acute non-ST elevation myocardial infarction (Examples 11-12); assay type: in vivo, human; settings: 1.0 to 100 mg/kg in the catheterization laboratory
Protocol: (§4) A person presents with uncomfortable pressure, squeezing and pain in the center of their chest as well as in shoulders, arms, neck, jaw and back for over 4 hours. They also complain of shortness of breath. […] They are given aspirin, clopidogrel, nitrates and IV heparin and taken to the catheterization laboratory. After being evaluated with an angiography, they are diagnosed as suffering from a […] blockage in the left anterior descending coronary artery. The patient is administered a composition comprising an effective amount of 3,4-Methylenedioxy 6-nitro phenyl lipoate (INV-7465) (1.0 to 100 mg/kg) in the catheterization laboratory. Patient reports improvement in the chest pain, shortness of breath. They are again evaluated with an angiography to measure reduced plaque in their arteries.
as §4, with “The patient is administered a composition comprising an effective amount of 3,4-Methylenedioxy 6-nitro phenyl lipoate (INV-7465) (1.0 to 100 mg/kg) in the catheterization laboratory. Patient reports improvement in the chest pain, shortness of breath.” left out

[1] = tested on: Human Umbilical Vein Endothelial Cells (HUVECs); experiment: MTT cell toxicity assay; assay type: cell-based; settings: HUVEC; for cells displaying toxicity: 24 hours
Protocol: as §1
Cell Toxicity Assays: Cellular toxicity was assessed by MTT [3-(4,5-dimethylthiazol-2-yl)-2,5-diphenyltetrazolium bromide] assay, a commercially available assay for assessment of cellular viability. INV-75 was added to HUVECs for 24 hours, and toxicity assays were performed at the end of this period. The MTT assay relies on the cellular reduction of positively charged tetrazolium salts to their intensely colored formazan product by mitochondrial dehydrogenases. Formazan production is decreased in the presence of impaired mitochondrial redox function and enhanced free radical production and may, therefore, be used as an index of cell viability responses to experimental interventions.
In short, after removing microtiter plates from the incubator, fresh medium containing a fixed volume of reconstituted MTT [3-(4,5-dimethylthiazol-2-yl)-2,5-diphenyltetrazlium bromide; final concentration: 0.5 mg/ml] was added to the wells; the plates were kept at 37° C. in a 5% CO2 environment for 2 h, and then the MTT solubilization solution provided by the manufacturer was added. The formazan product formed by the conversion of positively charged tetrazolium salts to the reduced state has low aqueous solubility and is present as purple crystals. Dissolving the formazan with a solubilization buffer (provided in kit) permits the convenient quantification of its formation. Optical density at OD 570 nm is then measured for each well on an absorbance plate reader. The within- and between-assay variability was 3 and 5%, respectively. Various concentrations of INV-75 was tested in cell based assays using the MTT assay, as described above. The concentrations tested ranged from 1 mM to 10 nM and the cells were exposed for over 24 hours in duration (FIG. 2).

[2] = tested on: New Zealand White rabbits; experiment: Plasma lipid profile in NZW rabbits; assay type: in vivo, rabbit; settings: end of treatment
Protocol: Animal Model: 15 male New Zealand White rabbits (Charles River, Mass.) were fed with high fat diet (HFD) (Harlan Teklad rabbit diet with 0.5% cholesterol, TD 87251). After 4 weeks of high fat diet, rabbits were randomized into three different treatment groups, normal control (n=5), lipoic acid (100 mg/kg/day) (n=5), INV 70-65 (100 mg/kg/day) (n=5). These drugs were administered to the animals via their chow by mixing the drugs with the high fat diet. A fixed amount of chow and drugs admixed in the chow were fed to all animals every day after carefully calculating food intake in each rabbit. Drugs were dissolved in 100% ethanol and sprayed onto the diet and kept under vacuum to let ethanol evaporate overnight. Two (2) weeks after drug or control admixed HFD, all rabbits underwent aortic balloon denudation surgeries followed by 12 weeks of continued administration of drug or controls admixed with HFD. FIG. 29 provides an outline of the experimental design.
A lipid profile (Cholesterol, Triglycerides, direct HDL, LDL and VLDL) was performed after a total of 12 weeks of treatment with the drugs. One (1) ml of blood from the ear lobe vein was placed into tubes containing K EDTA at the beginning of the high cholesterol diet and again at the time of sacrifice. All values were expressed as mean±SD. The bar graph of each group both at the baseline and the end point measurement is presented. The statistical analysis was done with one way ANOVA.

Row | SMILES | release of ICAM-1 (ICAM-1) | release of VCAM-1 (VCAM-1) | chest pain, shortness of breath (Cardiovascular Patient) | cells displaying toxicity ([1]; 10 nM) [%] | cells displaying toxicity ([1]; 100 nM) [%] | cells displaying toxicity ([1]; 1 μM) [%] | cells displaying toxicity ([1]; 10 μM) [%] | cells displaying toxicity ([1]; 1 mM) [%] | LDL level compared to normal control [2] | TC level compared to normal control [2] | cell toxicity results compared with those of INV-75 ([1]; dose range of 10 nM to 100 μM) | HDL levels [2] | VLDL levels compared to controls [2] | triglyceride (TG) levels compared to controls [2]
1 | O=C(CCCCC1CCSS1)Oc1cc2c(cc1[N+](=O)[O-])OCO2 (stereo not drawn) [INV-7465, 3,4-Methylenedioxy 6-nitro phenyl lipoate] | marked reduction | marked reduction | improvement | – | – | – | – | – | – | – | – | – | – | –
2 | CC(=O)Oc1cc2c(cc1[N+](=O)[O-])OCO2 [INV-75, 3,4-methylenedioxy-6-nitrophenyl acetate] | marked reduction | marked reduction | improvement | 2 | 4 | 8 | 7 | 74 | moderate decreases | moderate decreases | – | – | – | –
3 | O=C(CCCCC1CCSS1)Oc1ccc2c(c1)OCO2 (stereo not drawn) [INV-7065, 3,4-Methylenedioxy phenyl lipoate] | – | – | – | – | – | – | – | – | lower | – | identical | insignificant change | slight decrease | significantly decreased
